Measured values taken from patent US6933315B2, “Derivatives of isoindigo, indigo and indirubin and methods of treating cancer” (priority 2001, dated 2005).
Like-named read-outs stand apart in the source and are kept apart here.

Legend:
[1] = test system: cdk2; assay: cdk2 activity immuno-precipitated from treated LNCaP cells; type: cell-based, Human; conditions: 24 hours incubation with LNCaP cells
Protocol: (§1) Assay for cyclin dependent kinase activity: HUVEC and LNCaP cells were cultured in EMB (endothelial cell basal medium) and RPMI 1640 containing 10% FBS, respectively. The cells grown exponentially were exposed to indicated concentrations of meisoindigo or NATURA for 24 hr. The cells were harvested, washed, and total proteins extracted as described previously. One hundred μg of the proteins were immuno-precipitated using antibodies against cdk2, cdk4/6, PKC, ERK2 or cyclin D1 overnight at 4° C. in the presence of a cocktail of protease inhibitors. The immuno-precipitates were washed 4 times with protein extraction buffer and once with kinase assay buffer, and reacted with 75 μg/ml histone H1 in the presence of [γ-^32P]-ATP (2.5 μCi/10 μM). The phosphorylated histone H1 (represent cdk activity) was measured by scintillation counting or by SDS-polyacrylaimde gel electrophoresis. The direct inhibitory effects of Meisoindigo and NATURA were also measured by reaction of immuno-purified specific enzyme from untreated cells directly with the Meisoindigo or NATURA.
LNCaP cells grown exponentially were exposed to different concentrations of NATURA for 24 hrs. […] The upper panels (A & B) are imagines of the films from SDS-PAGE, and lower panels represent the density measured by an Imagine Densitometer from the same films (expressed as percent of control).

[2] = target: T1, immuno-purified cdk2 from LNCaP cells (Homo sapiens, UniProt P24941); assay: Direct inhibition of immuno-purified cdk2 activity in vitro; type: biochemical
T1 construct: Two hundred mg of total protein extracts were immuno-precipitated with cdk2 antibody overnight at 4° C
Protocol: as §1
When immuno-purified cdk2 from LNCaP cells was reacted with histone H1 in the presence of different concentrations of NATURA-β and γ-[^32P]-ATP (2.5 μCi/[…]), the enzyme activity was decreased in a concentration-dependent manner.
Two hundred mg of total protein extracts were immuno-precipitated with cdk2 antibody overnight at 4° C. After 4 washes with PBSTDS, and once with kinase assay buffer, the immuno-purified enzyme was then reacted for 10 min with 10 mg of histone H1 in the presence of different concentrations of NATURA or 50 mM of genistein (as a positive control) and γ-[^32P]-ATP (2.5 mCi/10 mM). The phosphorylated histone H1 (reflecting cdk2 activity) was detected either by SDS-PAGE (upper panel), or radioactive scintillation counting (lower panel, after eliminating free γ-[^32P]-ATP).

[3] = test system: protein kinase C (PKC); assay: PKC activity from treated LNCaP cells; type: cell-based, Human; conditions: as high as 15 μM, 24 hrs
Protocol: as §1, with “The immuno-precipitates were washed 4 times with protein extraction buffer and once with kinase assay buffer, and reacted with 75 μg/ml histone H1 in the presence of [γ-^32P]-ATP (2.5 μCi/10 μM).” left out, “NATURA. […]” for “NATURA.”
(§2) LNCaP cells at exponential growth phase were exposed to different concentrations of NATURA (panel A & B) for 24 hrs, or to PD98059 (panel C) for 15 min. […] Upper panels are the imagines of x-ray films from SDS-PAGE, and lower panels represent the densities of each band from the films determined by an Imagine Densitometer from the same films (expressed as the percent of control).

[4] = test system: extracellular signal-regulated protein kinase 2 (ERK2); assay: ERK2 activity from treated LNCaP cells; type: cell-based, Human; conditions: as high as 15 μM, 24 hrs
Protocol: as §1, with “The immuno-precipitates were washed 4 times with protein extraction buffer and once with kinase assay buffer, and reacted with 75 μg/ml histone H1 in the presence of [γ-^32P]-ATP (2.5 μCi/10 μM).” left out, “NATURA. […]” for “NATURA.”
as §2

[5] = Solubility description; type: physicochemical
[6] = test system: Lewis Lung Cancer; assay: Anticancer activity in Lewis lung carcinoma animal model; type: in vivo, C57 mice; conditions: mice, oral, Indirubin 100 × 9, Meisoindigo 106 × 9 mg/kgxd
Protocol: Briefly, C57 mice, body weight between 18 to 22 grams, and rat, body weight between 50 to 55 grams, were randomly divided into several groups, ten of each, respectively. Approximately 2×10^6 of Lewis cancer cells or Walker sarcoma cells were transplanted into mice or rat. […] The animals in the control group were given 0.1 ml saline (drug vehicle, negative control) for the same periods of time as treated group. The animals at end of the treatment were sacrificed and tumors were removed and weighed.

[7] = parameters: species or system dogs; conditions: dog, in vivo
Protocol: Two dogs were initially tested for sub-acute toxicity of Meisoindigo. They were orally given 10 mg/kg daily for 3 months.
Since no major toxicities were found during the initial study, an additional 3 dogs were tested by orally giving them a higher dose (20 mg/kg). Among them, one dog was given 20 mg/kg for 46 days, and another 2 dogs given for 2 months. […] However, all of those symptoms disappeared after the termination of the treatment of Meisoindigo.

[8] = Chronic toxicity in dogs; type: in vivo
Protocol: On the basis of above initial tests, the sub-acute toxicities of Meisoindigo were further examined in dogs. Twelve dogs were randomly divided into 3 groups each having equal numbers of males and females, and orally given Meisoindigo at doses of 0, 5, and 10 mg/kg daily, respectively, for 6 months. […] All parameters tested, in all animals, including controls fluctuated within normal ranges.
Twenty-four hours after the termination of Meisoindigo, half of the animal of each group were sacrificed, and dissected for pathological examination.

[9] = test system: TA97, TA98, TA100 and TA102; assay: Reverse mutation, Ames test; type: cell-based, salmonella typhimurium; conditions: +S9 and −S9, Meisoindigo 2, 20, 50, 100 and 200 μg/dish
Protocol: Meisoindigo at concentrations of 2, 20, 50, 100 and 200 μg/dish (10 cm), metabolically activated (+S9) and inactivated (−S9), were tested in strains of TA97, TA98, TA100 and TA102 (amino acid deficit salmonella typhimurium) respectively. Daunomycin, 2-aminofluorene (2AF), methylmethanesulfonate (MMS), 2,7-2AF, and 2-hydroxy-anthraquinone were used as positive controls.

[10] = oral, 5 and 10 mg/kg daily for 6 months

Row | Compound | inhibition of cdk2 enzyme activity ([1]; 5.0 μM) | inhibition of cdk2 enzyme activity ([1]; 15 μM) | inhibition at 10 µM ([2]; 10 μM compound, ATP concentration as high as 100 μM, read-out: inhibitory effect on immuno-purified cdk2, ATP competing assay) | IC50 ([2]; immuno-purified cdk2, histone H1, γ-[32P]-ATP 2.5 μCi/20 μM) | effect on PKC activity [3] | effect on ERK2 activity [4] | solubility in dimethyl sulfoxide (DMSO) [5] | solubility in ethanol, acetone, chloroform [5] | solubility in water [5] | Inhibition (%) [6] | Tumor Size X ± SD [6] | histochemical examinations [7] | biochemical changes of blood, liver, and kidney ([7]; po, 10 mg/kg) | clinical observations ([7]; po, 10 mg/kg) | clinical observations ([7]; po, 20 mg/kg) | tested parameters ([7]; po, 20 mg/kg) | pathological examination of heart, liver, lung, kidney, stomach, gastro intestine, testis, ovary, lymph node ([8]; 24 hours after termination of 6 months dosing) | clinical observations [8, 10] | hemogram, functions of liver (SGPT), kidney (BUN) and heart (ECG) vs control [8, 10] | reverse mutations (Ames test) [9]
1 | CC(=O)OC1COC(N2C(=O)/C(=C3/C(=O)Nc4ccccc43)c3ccccc32)C(OC(C)=O)C1OC(C)=O [NATURA, 1-(β-D-O-Triacetyl-xylopyranosyl)-isoindigo] | approximately 46% | ~92% | > 50% | 1600 ± 200 nM | No inhibitory effect | No inhibitory effect | soluble | slightly dissolves | rarely dissolves |  |  |  |  |  |  |  |  |  |  | 
2 | CN1C(=O)/C(=C2/C(=O)Nc3ccccc32)c2ccccc21 [Meisoindigo] |  |  |  |  |  |  |  |  |  | 48.6 ± 4.1% | 1.80 ± 0.15 | cellular edema, fatty degeneration, and scatter hyperplasia inflammation in liver tissues | No biochemical changes | Minor gastro intestinal irritations were observed occasionally | intestinal irritations at various degrees | No abnormalities | No abnormalities | minor gastro-intestinal irritations | No significant differences | No induction of reverse mutations
